# Results taken from PMC12267471, “Discovery of natural scaffolds as HER2 inhibitors for breast cancer: virtual screening, molecular dynamics, and biological characterization with selectivity profiling” (Scientific Reports, 2025).
# How the values were obtained:
# SKBR3 cells = assay: Transwell cell migration assay, SKBR3; format: cell-based, human; details: SKBR3, 6.4 µM, 24 h
# Experimental: The in vitro transwell migration assay was conducted using an HTS-96 transwell permeable support chamber with 8 μm pores (Corning, USA) equipped with polyvinylpyrrolidone-free polycarbonate (PVPF) filters. […] The plate was incubated for 24 h at 37 °C. Then, the transwell inserts were incubated in the receiver plate with Calcein AM/cell dissociation solution at 37 °C in 5% CO2 incubator for 1 h, followed by measuring the fluorescence using a fluorescence plate reader with 485 nm excitation and 520 nm emission filter package. The relative fluorescence units were converted to cell count using a standard curve. The number of cells that moved to the lower side of the filter was used to assess migratory characteristics. The experiment in both cell lines was conducted in triplicate and data are presented as the mean ± SD.
# [1] = tested on: HER2 protein in SKBR3 cells; assay: Western blot of p-HER2 and t-HER2, SKBR3; format: cell-based, human; details: SKBR3, 10 µM, 72 h
# Experimental: SKBR3 and BT-474 were plated in RPMI-1640 media, washed, and incubated for 72 h. They were lysed in cold lysis buffer, frozen, collected, sonicated, and centrifuged for 10 min under cooling. The stacking and resolving solutions for polyacrylamide gels were prepared using various solutions, including 30% acrylamide, 0.5 M Tris, 10% SDS, 10% Ammonium persulfate, and 0.005 mL TEMED in 3.4 mL water and 3.3 mL water respectively. The ReadyPrepTM protein extraction kit was used to extract total protein from samples. Protein concentration was determined using the Bradford Protein Assay Kit. Samples were mixed with Laemmli sample buffer, pH adjusted and boiled for five minutes at 95 °C before loading onto SDS-polyacrylamide gels. Proteins in each sample were mixed, boiled, and loaded onto SDS-polyacrylamide gels. They were separated using the SDS-PAGE method, using the TGX Stain-Free™ FastCast™ Acrylamide Kit and a Cleaver electrophoresis unit. Proteins were transferred from gels to PVDF membranes using transfer sandwiches. Filter paper, membrane, gel, and filter paper were stacked in a sandwich. Gels were blotted onto PVDF membranes via electrophoresis using a Bio-Rad Semi-dry Electroblotter for 30 min. […] The intensity of each band was quantitated using ImageLab.
# ALK = ALK (Homo sapiens, UniProt Q9UM73); assay: SelectScreen Z'-LYTE kinase profiling; format: biochemical
# Experimental: (§1) Liquiritin was screened at 0.1 µM dose against a panel of 15 human kinases using SelectScreen® kinase profiling services offered by ThermoFisher Scientific™ (Madison, WI, USA). The percent inhibition of Liquiritin was assessed against each kinase in an automated high-throughput screening system using the time-resolved fluorescence resonance energy transfer Z´-LYTE™ kinase assay. Technology overview, protocols, and assay conditions are accessible at https://x.gd/UgBBB.
# EGFR (ErbB1) = EGFR (ErbB1) (Homo sapiens, UniProt P00533); assay: SelectScreen Z'-LYTE kinase profiling; format: biochemical
# Chain of EGFR (ErbB1) (P00533 25-1210): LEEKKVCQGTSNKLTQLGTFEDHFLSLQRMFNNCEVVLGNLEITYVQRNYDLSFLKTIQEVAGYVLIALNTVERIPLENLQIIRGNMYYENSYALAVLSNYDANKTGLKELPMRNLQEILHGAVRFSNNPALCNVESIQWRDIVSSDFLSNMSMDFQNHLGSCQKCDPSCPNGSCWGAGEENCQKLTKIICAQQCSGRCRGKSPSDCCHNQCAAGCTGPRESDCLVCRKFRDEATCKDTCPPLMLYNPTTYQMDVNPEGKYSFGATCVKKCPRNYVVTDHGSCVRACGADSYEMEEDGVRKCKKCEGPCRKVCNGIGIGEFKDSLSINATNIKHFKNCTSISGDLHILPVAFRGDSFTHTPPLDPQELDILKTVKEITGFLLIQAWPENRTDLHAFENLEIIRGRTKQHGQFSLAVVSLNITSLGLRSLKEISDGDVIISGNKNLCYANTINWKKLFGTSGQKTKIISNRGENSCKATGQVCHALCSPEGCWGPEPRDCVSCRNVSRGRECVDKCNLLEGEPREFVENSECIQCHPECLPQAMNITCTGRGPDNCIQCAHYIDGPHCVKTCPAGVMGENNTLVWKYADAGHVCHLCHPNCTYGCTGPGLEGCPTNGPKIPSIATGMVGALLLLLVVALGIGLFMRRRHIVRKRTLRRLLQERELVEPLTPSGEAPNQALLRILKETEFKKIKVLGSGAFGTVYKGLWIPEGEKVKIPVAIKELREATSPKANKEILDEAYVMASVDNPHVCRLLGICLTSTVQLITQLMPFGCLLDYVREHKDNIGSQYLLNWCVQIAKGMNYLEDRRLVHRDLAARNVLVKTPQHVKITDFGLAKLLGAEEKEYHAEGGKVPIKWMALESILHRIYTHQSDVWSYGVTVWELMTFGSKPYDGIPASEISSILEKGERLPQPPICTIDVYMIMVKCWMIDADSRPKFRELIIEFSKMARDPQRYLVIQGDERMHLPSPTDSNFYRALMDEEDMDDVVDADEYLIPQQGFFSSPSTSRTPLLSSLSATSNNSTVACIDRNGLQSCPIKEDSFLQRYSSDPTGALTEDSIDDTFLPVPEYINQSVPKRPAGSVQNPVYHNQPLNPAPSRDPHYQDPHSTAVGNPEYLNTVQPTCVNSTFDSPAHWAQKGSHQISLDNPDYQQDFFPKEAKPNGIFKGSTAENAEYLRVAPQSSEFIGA
# Experimental: as §1
# ERBB2 (HER2) = ERBB2 (HER2) (Homo sapiens, UniProt P04626); assay: SelectScreen Z'-LYTE kinase profiling; format: biochemical
# Chain of ERBB2 (HER2) (P04626 23-1255): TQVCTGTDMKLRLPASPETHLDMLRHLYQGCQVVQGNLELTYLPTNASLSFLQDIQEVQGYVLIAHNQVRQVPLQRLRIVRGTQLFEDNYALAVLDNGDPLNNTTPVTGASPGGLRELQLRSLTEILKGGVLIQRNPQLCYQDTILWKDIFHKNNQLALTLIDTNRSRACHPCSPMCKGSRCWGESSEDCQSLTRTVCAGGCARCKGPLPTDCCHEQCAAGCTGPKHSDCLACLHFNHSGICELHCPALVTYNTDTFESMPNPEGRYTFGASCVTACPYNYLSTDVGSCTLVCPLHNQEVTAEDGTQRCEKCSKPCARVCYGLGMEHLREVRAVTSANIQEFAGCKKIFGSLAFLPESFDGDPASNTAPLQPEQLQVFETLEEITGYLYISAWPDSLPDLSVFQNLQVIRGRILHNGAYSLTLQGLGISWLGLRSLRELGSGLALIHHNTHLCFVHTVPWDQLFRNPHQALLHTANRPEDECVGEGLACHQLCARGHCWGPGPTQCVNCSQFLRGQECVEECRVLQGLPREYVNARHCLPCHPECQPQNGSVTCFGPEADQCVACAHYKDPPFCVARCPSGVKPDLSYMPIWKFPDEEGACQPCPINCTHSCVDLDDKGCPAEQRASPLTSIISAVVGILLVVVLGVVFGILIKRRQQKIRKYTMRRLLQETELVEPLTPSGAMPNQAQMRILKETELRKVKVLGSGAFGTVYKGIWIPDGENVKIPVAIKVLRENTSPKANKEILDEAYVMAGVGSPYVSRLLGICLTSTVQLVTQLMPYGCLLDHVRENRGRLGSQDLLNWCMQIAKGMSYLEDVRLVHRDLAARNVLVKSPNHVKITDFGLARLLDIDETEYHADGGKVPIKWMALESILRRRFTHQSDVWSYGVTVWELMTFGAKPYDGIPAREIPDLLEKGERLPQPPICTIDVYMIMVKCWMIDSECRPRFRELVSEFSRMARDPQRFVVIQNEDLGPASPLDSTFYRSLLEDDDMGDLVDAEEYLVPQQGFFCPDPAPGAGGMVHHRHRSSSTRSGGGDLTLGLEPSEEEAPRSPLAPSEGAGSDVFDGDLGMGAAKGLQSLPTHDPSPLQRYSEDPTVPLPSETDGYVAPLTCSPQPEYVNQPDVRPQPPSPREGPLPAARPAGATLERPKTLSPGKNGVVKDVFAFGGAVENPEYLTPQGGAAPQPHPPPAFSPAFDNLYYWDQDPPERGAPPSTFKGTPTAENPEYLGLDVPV
# Experimental: as §1
# ERBB4 (HER4) = ERBB4 (HER4) (Homo sapiens, UniProt Q15303); assay: SelectScreen Z'-LYTE kinase profiling; format: biochemical
# Chain of ERBB4 (HER4) (Q15303 26-1308): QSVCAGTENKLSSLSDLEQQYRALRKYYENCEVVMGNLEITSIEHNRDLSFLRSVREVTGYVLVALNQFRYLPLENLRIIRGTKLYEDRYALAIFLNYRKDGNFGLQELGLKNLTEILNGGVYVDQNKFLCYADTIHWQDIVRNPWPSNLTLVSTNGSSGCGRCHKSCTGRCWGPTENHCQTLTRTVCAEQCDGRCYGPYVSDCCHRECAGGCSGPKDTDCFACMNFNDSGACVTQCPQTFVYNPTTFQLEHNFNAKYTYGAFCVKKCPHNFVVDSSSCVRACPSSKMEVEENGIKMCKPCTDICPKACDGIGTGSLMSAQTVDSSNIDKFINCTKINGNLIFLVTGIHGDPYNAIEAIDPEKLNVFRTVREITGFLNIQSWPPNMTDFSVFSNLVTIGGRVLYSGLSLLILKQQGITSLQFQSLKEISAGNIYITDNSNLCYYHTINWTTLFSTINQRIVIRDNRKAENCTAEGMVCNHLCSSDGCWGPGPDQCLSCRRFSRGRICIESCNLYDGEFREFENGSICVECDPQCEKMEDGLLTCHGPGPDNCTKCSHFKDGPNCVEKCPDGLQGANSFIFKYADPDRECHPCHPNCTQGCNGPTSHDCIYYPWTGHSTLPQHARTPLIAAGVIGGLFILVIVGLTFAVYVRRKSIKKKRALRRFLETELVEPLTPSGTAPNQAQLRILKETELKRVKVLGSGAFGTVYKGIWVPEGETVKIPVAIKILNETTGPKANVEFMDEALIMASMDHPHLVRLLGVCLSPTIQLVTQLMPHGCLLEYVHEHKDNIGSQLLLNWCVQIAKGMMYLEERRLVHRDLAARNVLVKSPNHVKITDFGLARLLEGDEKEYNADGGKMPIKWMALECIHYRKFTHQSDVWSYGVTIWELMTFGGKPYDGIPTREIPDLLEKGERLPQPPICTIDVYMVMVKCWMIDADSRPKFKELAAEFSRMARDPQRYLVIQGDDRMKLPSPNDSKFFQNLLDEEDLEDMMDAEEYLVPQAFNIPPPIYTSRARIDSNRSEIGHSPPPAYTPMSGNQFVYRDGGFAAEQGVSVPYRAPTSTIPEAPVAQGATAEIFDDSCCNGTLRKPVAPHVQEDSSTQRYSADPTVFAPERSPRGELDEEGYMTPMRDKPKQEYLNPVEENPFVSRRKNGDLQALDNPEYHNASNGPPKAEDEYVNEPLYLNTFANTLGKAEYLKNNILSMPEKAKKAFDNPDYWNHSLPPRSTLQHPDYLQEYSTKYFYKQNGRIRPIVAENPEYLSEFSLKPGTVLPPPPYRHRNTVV
# Experimental: as §1
# FGFR1 = FGFR1 (Homo sapiens, UniProt P11362); assay: SelectScreen Z'-LYTE kinase profiling; format: biochemical
# Experimental: as §1
# FLT1 (VEGFR1) = FLT1 (VEGFR1) (Homo sapiens, UniProt P17948); assay: SelectScreen Z'-LYTE kinase profiling; format: biochemical
# Experimental: as §1
# IGF1R = IGF1R (Homo sapiens, UniProt P08069); assay: SelectScreen Z'-LYTE kinase profiling; format: biochemical
# Experimental: as §1
# KDR (VEGFR2) = KDR (VEGFR2) (Homo sapiens, UniProt P35968); assay: SelectScreen Z'-LYTE kinase profiling; format: biochemical
# Experimental: as §1
# KIT = KIT (Homo sapiens, UniProt P10721); assay: SelectScreen Z'-LYTE kinase profiling; format: biochemical
# Experimental: as §1
# MET (cMet) = MET (cMet) (Homo sapiens, UniProt P08581); assay: SelectScreen Z'-LYTE kinase profiling; format: biochemical
# Chain of MET (cMet) (P08581 25-1390): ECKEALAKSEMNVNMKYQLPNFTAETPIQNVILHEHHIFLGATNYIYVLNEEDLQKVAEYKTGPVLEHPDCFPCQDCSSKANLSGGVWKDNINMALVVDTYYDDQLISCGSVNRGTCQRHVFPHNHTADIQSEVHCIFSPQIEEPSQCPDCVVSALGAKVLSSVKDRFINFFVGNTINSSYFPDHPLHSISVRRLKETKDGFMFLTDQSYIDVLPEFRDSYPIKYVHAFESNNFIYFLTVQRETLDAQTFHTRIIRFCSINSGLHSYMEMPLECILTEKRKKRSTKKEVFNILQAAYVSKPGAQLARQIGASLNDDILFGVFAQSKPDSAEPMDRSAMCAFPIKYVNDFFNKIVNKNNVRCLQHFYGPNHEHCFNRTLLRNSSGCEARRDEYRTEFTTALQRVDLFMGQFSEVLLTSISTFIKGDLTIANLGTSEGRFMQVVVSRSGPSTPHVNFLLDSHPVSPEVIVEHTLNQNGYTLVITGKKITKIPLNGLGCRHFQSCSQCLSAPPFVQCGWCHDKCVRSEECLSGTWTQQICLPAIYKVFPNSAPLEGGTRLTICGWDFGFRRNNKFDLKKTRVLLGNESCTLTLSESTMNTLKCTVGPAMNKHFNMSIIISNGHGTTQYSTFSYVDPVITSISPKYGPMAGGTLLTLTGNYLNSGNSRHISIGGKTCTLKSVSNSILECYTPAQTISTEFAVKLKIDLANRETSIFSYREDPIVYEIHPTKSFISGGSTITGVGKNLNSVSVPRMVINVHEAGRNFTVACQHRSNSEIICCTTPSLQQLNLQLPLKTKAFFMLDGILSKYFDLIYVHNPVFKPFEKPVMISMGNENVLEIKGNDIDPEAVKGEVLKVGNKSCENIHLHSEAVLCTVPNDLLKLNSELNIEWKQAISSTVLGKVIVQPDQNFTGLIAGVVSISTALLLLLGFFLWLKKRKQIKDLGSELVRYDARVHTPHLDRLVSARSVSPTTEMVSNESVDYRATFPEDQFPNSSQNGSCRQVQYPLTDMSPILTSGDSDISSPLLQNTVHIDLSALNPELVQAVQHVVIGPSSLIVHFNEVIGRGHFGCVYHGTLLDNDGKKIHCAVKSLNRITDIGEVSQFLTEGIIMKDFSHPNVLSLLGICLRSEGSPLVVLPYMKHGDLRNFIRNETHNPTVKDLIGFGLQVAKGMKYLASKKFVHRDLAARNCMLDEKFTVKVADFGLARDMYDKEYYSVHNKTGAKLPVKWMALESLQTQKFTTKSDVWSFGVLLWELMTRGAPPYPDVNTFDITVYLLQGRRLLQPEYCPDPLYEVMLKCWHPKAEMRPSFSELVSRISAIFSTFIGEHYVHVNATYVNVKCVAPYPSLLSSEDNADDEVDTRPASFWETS
# Experimental: as §1
# MST1R (RON) = MST1R (RON) (Homo sapiens, UniProt Q04912); assay: SelectScreen Z'-LYTE kinase profiling; format: biochemical
# Experimental: as §1
# PDGFRB (PDGFR beta) = PDGFRB (PDGFR beta) (Homo sapiens, UniProt P09619); assay: SelectScreen Z'-LYTE kinase profiling; format: biochemical
# Experimental: as §1
# RET = RET (Homo sapiens, UniProt P07949); assay: SelectScreen Z'-LYTE kinase profiling; format: biochemical
# Experimental: as §1
# ROS1 = ROS1 (Homo sapiens, UniProt P08922); assay: SelectScreen Z'-LYTE kinase profiling; format: biochemical
# Experimental: as §1
# TYRO3 (RSE) = TYRO3 (RSE) (Homo sapiens, UniProt Q06418); assay: SelectScreen Z'-LYTE kinase profiling; format: biochemical
# Experimental: as §1
smiles,measurement,setting,value
O=C1C[C@@H](c2ccc(O[C@@H]3O[C@H](CO)[C@@H](O)[C@H](O)[C@H]3O)cc2)Oc2cc(O)ccc21 [Liquiritin],reduction in migration,SKBR3 cells,approximately 23%
same,total expression levels of HER2 protein,[1],comparable suppressive effects
same,HER2 phosphorylation,[1]; vs vehicle,significantly inhibited HER2 phosphorylation
same,inhibition at 0.1 µM,ALK,7%
same,inhibition at 0.1 µM,EGFR (ErbB1),> 80%
same,Mean inhibition (%),EGFR (ErbB1); 0.1 µM,99%
same,inhibition at 0.1 µM,ERBB2 (HER2),> 80%
same,Mean inhibition (%),ERBB2 (HER2); 0.1 µM,92%
same,inhibition at 0.1 µM,ERBB4 (HER4),> 80%
same,Mean inhibition (%),ERBB4 (HER4); 0.1 µM,88%
same,inhibition at 0.1 µM,FGFR1,7%
same,inhibition at 0.1 µM,FLT1 (VEGFR1),2%
same,inhibition at 0.1 µM,IGF1R,4%
same,inhibition at 0.1 µM,KDR (VEGFR2),4%
same,inhibition at 0.1 µM,KIT,0%
same,inhibition at 0.1 µM,MET (cMet),5%
same,inhibition at 0.1 µM,MST1R (RON),7%
same,inhibition at 0.1 µM,PDGFRB (PDGFR beta),4%
same,inhibition at 0.1 µM,RET,2%
same,inhibition at 0.1 µM,ROS1,8%
same,inhibition at 0.1 µM,TYRO3 (RSE),5%
